In patent publication US20160213635A1, “COMPOSITIONS USEFUL IN THE PREVENTION OR TREATMENT OF SKIN CANCER” (GIULIANI S.P.A., priority 2013, published 2016):

Key:
[1] = test system: NHKs cells; assay: Western Blot assessment (non-cleaved caspase 3) of UV induced apoptosis after pre-treatment with G01; format: cell-based, human; details: pre-treatment 90 μM 24±2 h; UVA 25 J/cm^2, UVB 80 mJ/cm^2; 24 h
Protocol: The NHKs cells were plated in the specific culture medium and maintained in culture for 24±2 h to allow adhesion to the plate. Each experimental condition was plated in duplicate. The cells were treated for 24±2 h with the compound G01, in a concentration of 90 μM. Subsequently, the cells identified as +UVA, +G01/UVA, +UVB, and +G01/UVB were respectively exposed, in the irradiation medium, to doses of UVA of 25 J/cm^2 and UVB of 80 mJ/cm^2, while the control plates and those treated only with G01 were maintained in the dark and at room temperature for a period of time equal to the irradiation time. The irradiation medium was then replaced with the culture medium. Based on the preliminary results obtained on a broader time range, a post-treatment time of 24 h was selected, after which the plates were processed for Western Blot protein determination. The protein expression of non-cleaved caspase 3 in each condition tested (treatment with G01 and/or UVA/UVB irradiation) was compared with the expression in the control cells (Ctr).

[2] = test system: NHKs cells; assay: Western Blot assessment of ability to repair DNA damage after pre-treatment with G01 and subsequent UV irradiation; format: cell-based, human; details: after UVB irradiation 25 mJ/cm^2, 6 h
Protocol: The NHKs cells were plated in the specific culture medium and maintained in culture for 24±2 h to allow adhesion to the plate. Then, the keratinocytes were treated for 24±2 h with the compound of the invention G01, at concentrations of 60 μM and 90 μM. Subsequently, the plates identified as +UVA, +G01/UVA, +UVB, and +G01/UVB were respectively exposed, in the irradiation medium, to doses of UVA of 10 J/cm^2 and UVB of 25 mJ/cm^2, while the control plates (Ctr) and those treated only with G01 were maintained in the dark and at room temperature for a period of time equal to the irradiation time. The irradiation medium was then replaced with the culture medium. Based on the preliminary results obtained on a broader time range, a post-treatment time of 6 h was selected, after which the plates were processed for Western Blot protein determination.
For each condition tested (treatment with G01 and/or UVA/UVB irradiation), the protein expression of the phosphorylated histone γH2AX, p53 and GADD45a (growth arrest and DNA damage response gene), known markers of DNA damage induced by UV radiation, was compared with the expression in the control cells (Ctr).

[3] = test system: NHKs cells; assay: Western Blot time course of p53, phospho-p53 and GADD45a after UVB irradiation and subsequent treatment with G01; format: cell-based, human; details: post-treatment 90 μM
Protocol: The NHKs cells were plated in the specific culture medium and maintained in culture for 24±2 h to allow adhesion to the plate. Subsequently, the plates identified as +UVB and +G01/UVB post were exposed, in the irradiation medium, to a UVB dose of 25. mJ/cm^2. The irradiation medium was then replaced with the culture medium containing the compound of the invention G01, in a concentration of 90 μM. Post-treatment times of 1-3-6-24 h were selected, after which the plates were processed for Western Blot protein determination. The protein expression of p53, phospho-p53, and GADD45a after UVB irradiation and post-treatment with the compound of the invention G01 was compared with the expression in the control cells (Ctr).

[4] = test system: primary cultures of human keratinocytes, NHKs; assay: Cell viability (incorporation of NR) after UV irradiation and subsequent treatment with G01; format: cell-based; details: post-treatment; UVA 10 J/cm^2, UVB 25 mJ/cm^2; particularly 48 h after irradiation; highest concentration tested 90 μM
Protocol: The cells were plated in the specific culture medium and maintained in culture for 24±2 h to allow adhesion to the plate. The cells in the plates identified as +UVA and +UVB were respectively exposed, in the irradiation medium, to doses of UVA of 10 J/cm^2 and UVB of 25 mJ/cm^2, while the control plate (Ctr) was maintained in the dark and at room temperature for a period of time equal to the irradiation time. The irradiation medium was then replaced with the culture medium, containing the compound G01 in concentrations selected based on the cell viability results obtained after treatment with the same compound (see above). The cell viability was measured (incorporation of NR) at a time of 24±2 h and 48±2 h after the irradiation, in the absence and the presence of UVA/UVB irradiation and/or treatment with the compound of the invention G01. The cell viability values for each condition tested were compared with the value obtained from the control and plotted on a graph to highlight any differences between the various experimental conditions.

[5] = test system: NHKs cells; assay: Flow cytometric (annexin V) assessment of UV induced apoptosis after pre-treatment with G01; format: cell-based, human; details: pre-treatment 90 μM 24±2 h; UVA 25 J/cm^2, UVB 80 mJ/cm^2; 24 h
Protocol: The NHKs cells were plated in the specific culture medium and maintained in culture for 24±2 h to allow adhesion to the plate. Each experimental condition was plated in duplicate. The cells were treated for 24±2 h with G01, in a concentration of 90 μM. Subsequently, the plates identified as +UVA, +G01/UVA, +UVB, and +G01/UVB were respectively exposed, in the irradiation medium, to doses of UVA of 25 J/cm^2 and UVB of 80 mJ/cm^2, while the control plates (Ctr) and those treated only with the compound under examination (G01) were maintained in the dark and at room temperature for a period of time equal to the irradiation time. The irradiation medium was then replaced with the culture medium. Based on the preliminary results obtained on a broader time range, a post-treatment time of 24 h was selected, after which the plates were processed according to the procedure given in the user manual of the specific kit for annexin V flow cytometric analysis (Annexin V), a typical assay to detect the early stages of apoptosis. The positivity for annexin V in each condition tested (treatment with G01 and/or UVA/UVB irradiation) was compared with the positivity in the control cells.

[6] = test system: NHKs cells; assay: Immunofluorescence of phosphorylated histone γH2AX after UVA or UVB irradiation and subsequent treatment with G01; format: cell-based, human; details: post-treatment 90 μM; UVA 10 J/cm^2 or UVB 25 mJ/cm^2; 24 h; vs cells only irradiated
Protocol: The NHKs cells were plated in the specific culture medium and maintained in culture for 24±2 h to allow adhesion to the plate. Subsequently, the plates identified as +UVA, +UVA/G01 post, UVB, and +UVB/G01 post were respectively exposed, in irradiation medium, to doses of UVA of 10 J/cm^2 or UVB of 25 mJ/cm^2. The irradiation medium was then replaced with the culture medium containing the compound of the invention G01, in a concentration of 90 μM. Based on preliminary results obtained on a broader time range, a post-treatment time of 24 h was selected, after which the plates were processed for the immunofluorescence determination of the protein expression of the phosphorylated histone γH2AX, whose expression is associated to the amount of DNA damage (double strand breaks). The protein expression of the phosphorylated histone γH2AX after treatment with the compound of the invention G01, or only after irradiation with UVA/UVB, was compared with the expression in the control cells.

[7] = UVB 25 mJ/cm^2, shorter times of 1-3-6-24 h

C/C=C/C=C/C=C/C(=O)O [G01, 2,4,6-trans-octatrienoic acid]
caspase 3 activation (protein expression of non-cleaved caspase 3) [1]: reduce caspase 3 activation
fraction of phosphorylated histone γH2AX [2]: reduced fraction
expression of the markers of DNA damage ([3]; 24 h after UVB irradiation 25 mJ/cm^2): decrease in the expression
levels of GADD45a [3, 7]: acceleration of the increase
levels of p53 [3, 7]: acceleration of the increase
levels of phospho-p53 [3, 7]: acceleration of the increase
cell viability after UVA/UVB irradiation [4]: significant protective action
apoptosis (positivity for annexin V) induced by UVA and UVB [5]: reduce the apoptosis
fraction of phosphorylated histone γH2AX [6]: significant reduction
